Results on six compounds are retold here after US9186369B2, “Purine nucleoside analogues for treating flaviviridae including hepatitis C” (Idenix Pharmaceuticals, Inc., priority 2003, dated 2015).

Structures are written as SMILES.

This data set has as its system MDK. The data set can be described thus: Cytotoxicity assay (sulforhodamine staining, CC50). The data set is classed as cell-based. The settings on record: MDK cells; 4 days incubation; concentration reducing cell number by 50%; preliminary results. As for the experimental part:
Cells are seeded at a rate of between 5×10^3 and 5×10^4/well into 96-well plates in growth medium overnight at 37° C. in a humidified CO2 (5%) atmosphere. New growth medium containing serial dilutions of the drugs is then added. After incubation for 4 days, cultures are fixed in 50% TCA and stained with sulforhodamine. The optical density was read at 550 nm. The cytotoxic concentration was expressed as the concentration required to reduce the cell number by 50% (CC50).
With `C[C@]1(CO)O[C@@H](n2cnc3c(=O)[nH]c(N)nc32)[C@H](O)[C@@H]1O` [β-D-4′-CH3-riboG], the CC50 (as a rule, the concentration giving 50% cytotoxicity) is greater than 250 µM.

As for `Cc1cn([C@@H]2O[C@](C)(CO)[C@@H](O)[C@H]2O)c(=O)[nH]c1=O` [β-D-4′-CH3-riboT], the CC50 is greater than 250 µM.

Take `C[C@]1(CO)O[C@@H](n2ccc(N)nc2=O)[C@H](O)[C@@H]1O` [β-D-4′-CH3-riboC]: the CC50 is greater than 250 µM.

With `CC1(CO)OC(n2cc(F)c(=O)[nH]c2=O)C(O)C1O` [β-D-4′-CH3-ribo-5-fluoroU], the CC50 was greater than 167 µM.

`C[C@]1(CO)O[C@@H](n2cnc3c(N)ncnc32)[C@H](O)[C@@H]1O` [β-D-4′-CH3-riboA] yielded a 50% cytotoxic concentration (CC50) greater than 250 µM.

The compound `C[C@]1(CO)O[C@@H](n2ccc(=S)[nH]c2=O)[C@H](O)[C@@H]1O` [β-D-4′-CH3-ribo-4-thioU] came in with a CC50 greater than 250 µM.
